# Reference: patent US10160771B2, “Hepatitis C virus inhibitors and uses thereof in preparation of drugs” (priority 2014, dated 2018)
# pEC50: −log10 of the molar value.
# Legend:
# [1] = system: HCV genotype 1a (HCV-1a) replicon cells; assay: HCV genotype 1a replicon luciferase assay (EC50); assay type: cell-based, hepatitis C virus genotype 1a (H77 clone); settings: 3 days, luciferase (Bright-Glo)
# In short: (§1)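 Compounds were dispensed as 5-fold, 6-point series (highest 100, 10 or 1 nM; 0.5% DMSO) in duplicate. Replicon cells expressing luciferase (H77-derived for 1a, Con1-derived for 1b) were added at 8000 per well and grown 3 days. Luciferase activity was then measured and EC50 fitted.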
# [2] = system: HCV genotype 1b (HCV-1b) replicon cells; assay: HCV genotype 1b replicon luciferase assay (EC50); assay type: cell-based, hepatitis C virus genotype 1b (Con1 clone); settings: Hepatitis C virus, 72 h, 3 days, luciferase (Bright-Glo)
# In short: as §1
# [3] = Cell Titer-fluor cell activity assay in HCV-1b replicon cells (CC50); assay type: cell-based
# In short: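 Con1 genotype 1b replicon cells (E1202G, T1280I, K1846T adaptive mutations), 8000 cells/well, exposed to 6-point 5-fold dilutions from 100, 10 or 1 nM top concentration in 0.5% DMSO, duplicate wells, 3 days at 37 °C. Viability read by Cell Titer-fluor (Ex 405/Em 515 nm) after 30 min; CC50 from nonlinear fit of inhibition %.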
Compound,"pEC50 ([1]; Hepatitis C virus, 72 h)",pEC50 [2],CC50 at 3 days [3] [nM],pEC50 [1]
COC(=O)N[C@H](C(=O)N1CCC[C@H]1c1ncc(-c2ccc(-c3ccc(-c4cnc(C5C6CCC(C6)[C@H]5C(=O)NCCc5ccncc5)[nH]4)cc3)cc2)[nH]1)[C@@H](C)OC (stereo partly drawn) [AA_266_B],7.00 to 8.00,9.00 to 10.00,> 1,
COC(=O)N[C@H](C(=O)N1CCC[C@H]1c1ncc(-c2ccc(-c3ccc(-c4cnc(C5C6CCC(C6)[C@@H]5C(=O)N[C@H](c5cccnc5)C(C)C)[nH]4)cc3)cc2)[nH]1)[C@@H](C)OC (stereo partly drawn) [AA_267_A],9.00 to 10.00,10.00 to 12.00,> 1,
COC(=O)N[C@H](C(=O)N1CCC[C@H]1c1ncc(-c2ccc(-c3ccc(-c4cnc(C5C6CCC(C6)[C@H]5C(=O)N[C@H](c5cccnc5)C(C)C)[nH]4)cc3)cc2)[nH]1)[C@@H](C)OC (stereo partly drawn) [AA_267_B],,9.00 to 10.00,> 1,8.00 to 9.00
COC(=O)N[C@H](C(=O)N1CCC[C@H]1c1ncc(-c2ccc(-c3ccc(-c4cnc(C5C6CCC(C6)[C@@H]5C(=O)NCc5cnccn5)[nH]4)cc3)cc2)[nH]1)[C@@H](C)OC (stereo partly drawn) [AA_268_A],9.00 to 10.00,10.00 to 12.00,> 1,
COC(=O)N[C@H](C(=O)N1CCC[C@H]1c1ncc(-c2ccc(-c3ccc(-c4cnc(C5C6CCC(C6)[C@H]5C(=O)NCc5cnccn5)[nH]4)cc3)cc2)[nH]1)[C@@H](C)OC (stereo partly drawn) [AA_268_B],8.00 to 9.00,10.00 to 12.00,> 1,
COC(=O)N[C@H](C(=O)N1CCC[C@H]1c1ncc(-c2ccc(-c3ccc(-c4cnc([C@@H]5[C@H]6CC[C@H](C6)[C@H]5C(=O)N[C@@H](C)c5cnccn5)[nH]4)cc3)cc2)[nH]1)C(C)C [AA_270_ENDOA2_A],10.00 to 12.00,10.00 to 12.00,> 1,
COC(=O)N[C@H](C(=O)N1CCC[C@H]1c1ncc(-c2ccc(-c3ccc(-c4cnc([C@@H]5[C@H]6CC[C@H](C6)[C@H]5C(=O)N[C@H](C)c5cnccn5)[nH]4)cc3)cc2)[nH]1)C(C)C [AA_270_ENDOA2_B],8.00 to 9.00,10.00 to 12.00,> 1,
COC(=O)N[C@H](C(=O)N1CCC[C@H]1c1ncc(-c2ccc(-c3ccc(-c4cnc([C@@H]5[C@H]6CC[C@H](C6)[C@H]5C(=O)NC5(c6ccccc6)CC5)[nH]4)cc3)cc2)[nH]1)C(C)C [AA_273_ENDOA2],8.00 to 9.00,10.00 to 12.00,> 1,
COC(=O)N[C@H](C(=O)N1CCCC1c1ncc(-c2ccc(-c3ccc(-c4cnc([C@@H]5C6CCC(C6)C5C(=O)NCc5cccnc5)[nH]4)cc3)c(F)c2)[nH]1)[C@@H](C)OC (stereo partly drawn) [AA_280_A],8.00 to 9.00,10.00 to 12.00,> 1,
COC(=O)N[C@H](C(=O)N1CCCC1c1ncc(-c2ccc(-c3ccc(-c4cnc([C@H]5C6CCC(C6)C5C(=O)NCc5cccnc5)[nH]4)cc3)c(F)c2)[nH]1)[C@@H](C)OC (stereo partly drawn) [AA_280_B],9.00 to 10.00,10.00 to 12.00,> 1,
COC(=O)N[C@H](C(=O)N1CCC[C@H]1c1ncc(-c2ccc(-c3ccc(-c4cnc(C5C6CCC(C6)[C@H]5C(=O)NC(C)c5cnccn5)[nH]4)cc3)cc2)[nH]1)[C@@H](C)OC (stereo partly drawn) [AA_281_B],9.00 to 10.00,10.00 to 12.00,> 1,
CNC(=O)[C@@H](NC(=O)[C@@H]1[C@@H]2CC[C@@H](C2)[C@H]1c1ncc(-c2ccc(-c3ccc(-c4cnc([C@@H]5CCCN5C(=O)[C@@H](NC(=O)OC)C(C)C)[nH]4)cc3)cc2)[nH]1)C(C)C [AA_298_ENDOA2],8.00 to 9.00,10.00 to 12.00,> 1,
COC(=O)N[C@H](C(=O)N1CCC[C@H]1c1ncc(-c2ccc(-c3ccc(-c4cnc([C@@H]5[C@H]6CC[C@H](C6)[C@H]5C(=O)NN(C(=O)OC)C(C)C)[nH]4)cc3)cc2)[nH]1)C(C)C [AA_299_ENDOA2],7.00 to 8.00,10.00 to 12.00,> 1,
COC(=O)N[C@H](C(=O)N1CCC[C@H]1c1ncc(-c2ccc(-c3ccc(-c4cnc([C@@H]5[C@H]6CC[C@H](C6)[C@H]5C(=O)NN(C(C)=O)C(C)C)[nH]4)cc3)cc2)[nH]1)C(C)C [AA_300_ENDOA2],7.00 to 8.00,9.00 to 10.00,> 1,
CCOC(=O)CNC(=O)[C@@H](NC(=O)[C@@H]1[C@@H]2CC[C@@H](C2)[C@H]1c1ncc(-c2ccc(-c3ccc(-c4cnc([C@@H]5CCCN5C(=O)[C@@H](NC(=O)OC)C(C)C)[nH]4)cc3)cc2)[nH]1)C(C)C [AA_301_ENDOA2],7.00 to 8.00,9.00 to 10.00,> 1,
COC(=O)N[C@H](C(=O)N1CCCC1c1ccc(-c2ccc(-c3ccc(-c4ccc(C5CCCN5C(=O)[C@@H](NC(=O)OC)C(C)C)[nH]4)cc3)cc2)[nH]1)C(C)C (stereo partly drawn) [AG_011],7.00 to 8.00,10.00 to 12.00,> 1,

Compound,"pEC50 ([1]; Hepatitis C virus, 72 h)",pEC50 [2],CC50 at 3 days [3] [nM],pEC50 [1]
COC(=O)N[C@H](C(=O)N1CCCC1c1ncc(-c2ccc(-c3ccc(-c4[nH]c(C5CCCN5C(=O)[C@@H](NC(=O)OC)C(C)C)c5c4CCCC5)cc3)cc2)[nH]1)C(C)C (stereo partly drawn) [AG_014],7.00 to 8.00,9.00 to 10.00,> 10,
COC(=O)N[C@H](C(=O)N1CCCC1c1ncc(-c2ccc(-c3ccc(-c4[nH]c([C@@H]5CCCN5C(=O)[C@@H](NC(=O)OC)C(C)C)c5c4CCC5)cc3)cc2)[nH]1)C(C)C (stereo partly drawn) [AG_014_A],8.00 to 9.00,10.00 to 12.00,> 10,
COC(=O)N[C@H](C(=O)N1CCC[C@H]1c1ncc(-c2ccc(-c3ccc(-c4[nH]c([C@@H]5CCCN5C(=O)[C@@H](NC(=O)OC)C(C)C)c5c4CCCC5)cc3)cc2)[nH]1)C(C)C [AG_015_A],7.00 to 8.00,10.00 to 12.00,> 1,
COC(=O)N[C@H](C(=O)N1CCCC1c1ccc(-c2ccc(-c3ccc(-c4cnc([C@@H]5COC(C)(C)N5C(=O)[C@@H](NC(=O)OC)C(C)C)[nH]4)cc3)cc2)[nH]1)C(C)C (stereo partly drawn) [AG_022],7.00 to 8.00,9.00 to 10.00,> 10,
COC(=O)N[C@H](C(=O)N1CCC[C@H]1c1[nH]c(-c2ccc(-c3ccc(-c4[nH]c([C@@H]5CCCN5C(=O)[C@@H](NC(=O)OC)C(C)C)c5c4CCC5)cc3)cc2)c2c1CCC2)C(C)C [AG_026_A],7.00 to 8.00,9.00 to 10.00,> 10,
COC(=O)NC(C(=O)N1CCCC1c1[nH]c(-c2ccc(-c3ccc(-c4cnc([C@@H]5CCCN5C(=O)[C@@H](NC(=O)OC)C(C)C)[nH]4)cc3)cc2)c2c1CCCC2)C1CCOC1 (stereo partly drawn) [AG_027],7.00 to 8.00,9.00 to 10.00,> 10,
COC(=O)N[C@H](C(=O)N1CCCC1c1ccc(-c2ccc(-c3ccc(-c4cnc([C@@H]5CCCN5C(=O)[C@@H](NC(=O)OC)C5CCOC5)[nH]4)cc3)cc2)[nH]1)C(C)C (stereo partly drawn) [AG_054],9.00 to 10.00,10.00 to 12.00,> 10,
COC(=O)N[C@H](C(=O)N1CCCC1c1[nH]c(-c2ccc(-c3ccc(-c4cnc([C@@H]5CCCN5C(=O)[C@@H](NC(=O)OC)C(C)C)[nH]4)cc3)cc2)c2c1COC2)C(C)C (stereo partly drawn) [AG_060],9.00 to 10.00,10.00 to 12.00,> 1,
COC(=O)N[C@H](C(=O)N1CCC[C@H]1c1ncc(-c2ccc(-c3ccc(-c4[nH]c([C@@H]5CCCN5C(=O)[C@@H](NC(=O)OC)C(C)C)c5c4COC5)cc3)cc2)[nH]1)C(C)C [AG_060_B],10.00 to 12.00,10.00 to 12.00,> 10,
COC(=O)N[C@H](C(=O)N1CCC[C@H]1c1ccc(-c2ccc(-c3ccc(-c4cnc([C@@H]5CCCN5C(=O)[C@@H](NC(=O)OC)[C@@H](C)OC)[nH]4)cc3)cc2)[nH]1)C(C)C [AG_061_A],9.00 to 10.00,10.00 to 12.00,> 1,
COC(=O)N[C@H](C(=O)N1CCC[C@@H]1c1ccc(-c2ccc(-c3ccc(-c4cnc([C@@H]5CCCN5C(=O)[C@@H](NC(=O)OC)[C@@H](C)OC)[nH]4)cc3)cc2)[nH]1)C(C)C [AG_061_B],9.00 to 10.00,10.00 to 12.00,> 10,
COC(=O)N[C@H](C(=O)N1CCC[C@H]1c1nc2cc(-c3ccc(-c4[nH]c([C@@H]5CCCN5C(=O)[C@@H](NC(=O)OC)C(C)C)c5c4CCC5)cc3)ccc2[nH]1)C(C)C [AG_063],7.00 to 8.00,10.00 to 12.00,> 1,
COC(=O)N[C@H](C(=O)N1CCC[C@H]1c1[nH]c(-c2ccc(-c3ccc(-c4cnc([C@@H]5CCCN5C(=O)[C@@H](NC(=O)OC)[C@@H](C)OC)[nH]4)cc3)cc2)c2c1CCC2)C(C)C [AG_066],8.00 to 9.00,10.00 to 12.00,> 1,
COC(=O)N[C@H](C(=O)N1CCC[C@H]1c1[nH]c(-c2ccc(-c3ccc(-c4cnc([C@@H]5CCCN5C(=O)[C@@H](NC(=O)OC)[C@@H](C)OC)[nH]4)cc3)cc2)c2c1CCCC2)C(C)C [AG_067],7.00 to 8.00,10.00 to 12.00,> 1,
COC(=O)NC(C(=O)N1CCC[C@H]1c1[nH]c(-c2ccc(-c3ccc(-c4cnc([C@@H]5CCCN5C(=O)[C@@H](NC(=O)OC)[C@@H](C)OC)[nH]4)cc3)cc2)c2c1CCC2)[C@@H](C)OC (stereo partly drawn) [AG_068_A],8.00 to 9.00,10.00 to 12.00,> 1,
COC(=O)NC(C(=O)N1CCC[C@@H]1c1[nH]c(-c2ccc(-c3ccc(-c4cnc([C@@H]5CCCN5C(=O)[C@@H](NC(=O)OC)[C@@H](C)OC)[nH]4)cc3)cc2)c2c1CCC2)[C@@H](C)OC (stereo partly drawn) [AG_068_B],7.00 to 8.00,9.00 to 10.00,> 1,
